Reference: ChEMBL document CHEMBL1122122, “Drug latentiation by gamma-glutamyl transpeptidase” (J Med Chem, 1982)
Residues, ends and D or L forms follow the SMILES beside them.

Assay: Compound evaluated for drug latentiation activity by determining relative rate of cleavage by gamma-glutamyl transpeptidase
Type: functional

| Structure (SMILES) | Relative activity |
| --- | --- |
| NC(CCC(=O)N1CSCC1C(=O)O)C(=O)O (stereo not given) | 5 |
| NC(CCC(=O)NC1(C(=O)O)CCCC1)C(=O)O (stereo not given) | 19 |
| CCC(NC(=O)CCC(N)C(=O)O)C(=O)O (stereo not given) | 95 |
| NC(CCC(=O)Nc1ccccc1O)C(=O)O (stereo not given) | 95 |
| NC(CCC(=O)Nc1ccc(O)cc1)C(=O)O (stereo not given) | 98 |
| CSC[C@H](NC(=O)CC[C@H](N)C(=O)O)C(=O)NCC(=O)O | 100 |
| NC(CCC(=O)N1CCCC1C(=O)O)C(=O)O (stereo not given) | 4 |
| NC(CCC(=O)NCCCC(=O)O)C(=O)O (stereo not given) | 9 |
| NC(=O)CC[C@H](N)C(=O)NCC(=O)O (H-Gln-Gly-OH) | 70 |
| NC(CCC(=O)Nc1cccc(O)c1)C(=O)O (stereo not given) | 96 |
